Data on two compounds can be found in BindingDB's records for patent US12017994 (Symberix, 2024).

The target in this assay is Beta-glucuronidase (Escherichia coli (strain K12), UniProt P05804). Nature of the assay: Biological Assay. The procedure:
Successful drug candidate compounds were subjected to numerous biochemical and cellular assays. Purified bacterial β-glucuronidases were challenged with compounds to determine inhibition properties in a standard, robust activity assay, utilizing p-nitrophenyl glucuronide (PNPG) as the enzymatic substrate. Reactions (n=3/inhibitor concentration) were conducted in a 96-well assay, consisting of PNPG substrate (12 concentrations between 25 μM and 5 mM), inhibitor solution (8 concentrations between 0.1 nM and 100 μM), and 5 nM enzyme. […] Purified bovine liver and human β-glucuronidase were dissolved in a reaction mixture containing 1 μM enzyme and 1 mM PNPG as substrate.

Beta-glucuronidase, sequence (P05804 whole entry): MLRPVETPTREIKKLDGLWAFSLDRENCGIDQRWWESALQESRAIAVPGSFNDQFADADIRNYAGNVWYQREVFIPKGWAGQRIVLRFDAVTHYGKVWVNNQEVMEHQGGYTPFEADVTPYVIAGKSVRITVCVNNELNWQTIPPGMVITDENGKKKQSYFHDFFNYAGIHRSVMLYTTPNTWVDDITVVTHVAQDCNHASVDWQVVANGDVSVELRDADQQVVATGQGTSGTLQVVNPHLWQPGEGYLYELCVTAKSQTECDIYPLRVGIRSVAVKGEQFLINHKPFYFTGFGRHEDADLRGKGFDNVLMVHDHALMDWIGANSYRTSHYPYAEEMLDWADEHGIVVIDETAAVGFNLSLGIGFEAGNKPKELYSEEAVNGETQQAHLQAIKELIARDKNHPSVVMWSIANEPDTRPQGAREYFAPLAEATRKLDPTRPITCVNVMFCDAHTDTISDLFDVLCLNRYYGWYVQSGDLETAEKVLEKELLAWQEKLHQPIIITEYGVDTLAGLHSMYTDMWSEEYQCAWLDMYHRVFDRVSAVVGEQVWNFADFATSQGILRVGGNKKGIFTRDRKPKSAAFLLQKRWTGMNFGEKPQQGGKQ

One may read the IC50 as the concentration that inhibits the measured activity by half. Low readings indicate inhibition by little substance, high ones a need for much substance. Compound `COc1cccc(NC(=O)N(CCO)Cc2cc3cc(C)cc(C)c3[nH]c2=O)c1` [US12017994, Ref #36'] came in with an IC50 of 3.71 µM.
Compound `Cc1cc(C)c2[nH]c(=O)c(CN(CCO)C(=O)Nc3ccc(F)cc3C#C[Si](C)(C)C)cc2c1` [US12017994, Ref #44'] showed an IC50 of 19.1 µM.
